Experimental data: the NIST ThermoML archive (doi:10.1021/je034136z)
Several values for one entry are separate records, joined by “and”; a condition that tells them apart may be missing. Equal entries are not always repeated. Numbers after ± are expanded uncertainties. Blank lines part the entries; values can stand above or below the molecule they belong to.

Settings: Liquid

- vapor or sublimation pressure (323.17 K): 29.27 ± 0.36 kPa
Compound: CCO [ethanol]

- vapor or sublimation pressure (323.16 K): 23.47 ± 0.35 kPa
Compound: CC(C)O [propan-2-ol]

- vapor or sublimation pressure (323.14 K): 55.57 ± 0.41 kPa
Compound: CO [methanol]

Second part, the molecule before the results:

Compound: CC(C)(C)O [2-methylpropan-2-ol]
- vapor or sublimation pressure (322.78 K): 23.07 ± 0.35 kPa

Compound: C=C(C)C [2-methylpropene]
- vapor or sublimation pressure (322.79 K): 605.14 ± 2 kPa
- vapor or sublimation pressure (323.11 K): 608.94 ± 2 kPa
- vapor or sublimation pressure (323.14 K): 608.84 ± 2 kPa and 609.14 ± 2 kPa
- vapor or sublimation pressure (323.15 K): 611.04 ± 2.1 kPa

Compound: CCC(C)O (centres undefined) [butan-2-ol]
- vapor or sublimation pressure (323.11 K): 10.57 ± 0.34 kPa
